Measurements from patent publication US20090030066A1, “SMALL MOLECULES FOR THE PROTECTION OF PANCREATIC CELLS” (priority 2007, published 2009).

Key:
NIT-1 β-cells = experiment: MTT viability of STZ-treated NIT-1 islet β-cells; type: cell-based, mouse; conditions: for A540 (MTT, relative number of viable cells): 30 h, 2% serum, mean ± std. dev. n=8
From the text: (§1) In the Examples below, an MTT assay was used to determine the relative number of viable cells after treatments. This calorimetric assay is based on the ability of living cells, but not dead cells, to reduce 3-(4,5-dimethyl thiazol-2-yl)-2,5-diphenyltetrazolium bromide. [Carmichael, J, De Graff, W. G., Gazdar, A. F., Minna, J. D. and Mitchell, J. B. (1987) Evaluation of tetrazolium-based semiautomated calorimetric assay: Assessment of chemosensitivity testing. Cancer Res. 47, 936-942], which is hereby incorporated by reference. For this assay, cells were plated in 96-well plates, and the MTT assay was performed as described in the above article both in untreated and treated cell cultures. The MTT assay also was performed at the time when the treatment was started to allow for assessment of the proliferation and survival rates in the control and treated cell cultures. In the MTT assay, higher values mean proportionally higher numbers of viable cells.
NIT-1 β-cells, originally isolated from transgenic NOD mouse carrying SV 40 large T antigen gene on a rat insulin promoter, were obtained from American Type Culture Collection (ATCC CRL-2055). NIT-1 cells contain and secrete insulin, while at the same time they retained their ability to proliferate in the presence of an appropriate stimulus. The cells, maintained in Ham's F12K medium containing 10% heat-inactivated dialyzed fetal bovine serum, were used between passages 32-35.
In this experiment, NIT-1 cells were seeded into 96-well plates. After 24 hours, the medium was replaced with fresh 2% fetal bovine serum containing medium, followed by treatments with 2-50 μM of CCompound1 and 30 min later with 20 mM STZ. Treatments were for 30 hours followed by the MTT assay to determine the relative number of viable cells (expressed as A540).

RINm5F rat islet β-cells = experiment: MTT viability of palmitic acid-treated RINm5F islet β-cells; type: cell-based; conditions: for A540 (MTT, relative number of viable cells): 24 h, mean ± S.D. n=8
From the text: as §1
RINm5F rat islet β-cells (ATCC CRL-2058; secondary clone of RIN-m clone secreting only insulin, but no somatostatin or glucagon) were used to determine if CCompound1 could protect them against fatty acid-induced cell death. The medium for propagation: RPMI 1640/10% fetal bovine serum.
Palmitic acid (purchased from Sigma-Aldrich) was dissolved in 200 mM ethanol and then diluted 1:25 with Krebs-Ringer-Hepes buffer containing 20% bovine serum albumin (fraction V, fatty acid-free; from Sigma-Aldrich). The fatty acid mixture was gently agitated at 37° C. under nitrogen overnight. The cells were seeded into 96-well plates at a density of 8,000 cells per well. When the cultures reached 70% confluence, fatty acid or a corresponding amount of albumin and CCompound1 (suspended in the medium) were added to the medium and incubations continued for 24 hours. This was followed by the MTT assay to determine the relative number of viable cells.

STZ-treated mice [1] = experiment: STZ-treated mice, second experiment: body weight to day 80 and survival; type: in vivo; conditions: for survivors: 80th day
From the text: In a second similar experiment performed with 6 mice in each group, the changes in body weight were followed for up to 80 days (when the last STZ-treated mouse died), and survival was followed for up to 100 days.
For the body weight (on the 80th day) and survival the following values were obtained: Untreated (6 survivors), 37.7 g; STZ-treated (one last survivor died on day 80, others survived for 22, 25, 27, 60, 75 days), 26.0 g; CCompound1-treated (6 survivors), 36.0 g; STZ+CCompound1 treated (6 survivors), 33.4 g; STZ+CCompound3-treated (5 survivors; one mouse died on day 78), 32.5 g. At the start of the experiment (day 0), the average body weight ranged from 28.6 to 29.8 g. Accordingly, by day 80, STZ-treated animals that were also treated with CCompound1 and CCompound3 gained about 50% of the weight gained by the untreated animals.

STZ-treated mice [2] = experiment: STZ-treated mice, third experiment (fasted): blood glucose, body weight, survival; type: in vivo
Procedure: The effects of CCompound1 on blood glucose level and body weight as well as survival were also examined in a third experiment. Animals weighing between 24.6-25.3 g were selected for this experiment with each group consisting of 6 mice. One group of mice (group 1) received no treatment over the entire experiment, while in the other two groups (groups 2-3), animals were injected (i.p.) with 210 mg/kg of STZ on day 0. Animals in group 3 were also injected (i.p.) with 4.5 mg per kg of CCompound1 once daily for 10 days starting 24 h prior to STZ treatment. CCompound1 and STZ were dissolved as previously indicated.
In this experiment the animals were fasted for 13-14 hours (fasted overnight from 6 p.m. to 7-8 a.m. and returned to normal diet from 8 a.m. to 6 p.m) prior to taking the blood samples.

[3] = tested on: AR42J rat pancreatic tumor cell line; experiment: MTT proliferation of AR42J pancreatic tumor cells; type: cell-based; conditions: 96 h
From the text: as §1
The AR42J rat pancreatic tumor cell line, purchased from ATTC (catalog number: CRL-1492), was propagated in modified Ham's medium containing 20% fetal bovine serum. These cells, derived from a transplantable tumor of the exocrine pancreas, contain significant amounts of amylase and other exocrine enzymes and they produce tumors in athymic mice.
For the experiment, cells were split in 96-well plates at 15,000 cells per well. After 24 hours, the medium was changed for fresh medium (0 hour) and various concentrations of CCompound1 and CCompound3 were added and incubations continued for 96 hours. The MTT assay was used to determine the relative number of viable cells. From the data shown in TABLE 13, in the 2-25 μM concentration range CC compounds had only inhibitory effects on the proliferation of pancreatic cancer cells.

[4] = STZ + compound, 6 mice per group

## Cc1c(OCC(O)C[N+](C)(C)C)cc2c(=O)c3ccccc3sc2c1C.[Cl-] (stereo not drawn) [CCcompound1, [3-(3,4-Dimethyl-9-oxo-9H-thioxanthen-2-yloxy)-2-hydroxypropyl]trimethyl-ammonium chloride]
NIT-1 β-cells; 10 μM
  effect on the inhibitory effects of STZ on cell proliferation: almost fully reverses
NIT-1 β-cells; 50 μM
  effect on the inhibitory effects of STZ on cell proliferation: added to the inhibitory effects of STZ
NIT-1 β-cells; 2-5 μM
  effect on the inhibitory effects of STZ on cell proliferation: partially reverses
NIT-1 β-cells; STZ 20 mM + compound 2 μM
  A540 (MTT, relative number of viable cells): 0.934 ± 0.053
NIT-1 β-cells; STZ 20 mM + compound 5 μM
  A540 (MTT, relative number of viable cells): 1.078 ± 0.068
NIT-1 β-cells; STZ 20 mM + compound 10 μM
  A540 (MTT, relative number of viable cells): 1.144 ± 0.056
NIT-1 β-cells; STZ 20 mM + compound 50 μM
  A540 (MTT, relative number of viable cells): 0.718 ± 0.071
RINm5F rat islet β-cells; 5 μM
  effect on palmitic acid-induced decrease in the number of viable cells: partially prevented
RINm5F rat islet β-cells; 10 μM
  effect on palmitic acid-induced decrease in the number of viable cells: almost fully prevented
RINm5F rat islet β-cells; 50 μM
  effect on palmitic acid-induced decrease in the number of viable cells: added to the inhibitory effect of palmitic acid
RINm5F rat islet β-cells; palmitic acid 0.5 mM + compound 5 μM
  A540 (MTT, relative number of viable cells): 1,198 ± 0.086
RINm5F rat islet β-cells; palmitic acid 0.5 mM + compound 10 μM
  A540 (MTT, relative number of viable cells): 1,251 ± 0.069
RINm5F rat islet β-cells; palmitic acid 0.5 mM + compound 50 μM
  A540 (MTT, relative number of viable cells): 0.836 ± 0.080
STZ-treated mice [1]; STZ + compound
  weight gained by day 80 relative to the weight gained by the untreated animals: about 50%
STZ-treated mice [1]; [4]
  body weight on the 80th day: 33.4 g
  survivors: 6
STZ-treated mice [1]; compound alone, no STZ, 6 mice
  body weight on the 80th day: 36.0 g
STZ-treated mice [1]; compound alone, no STZ, 6 mice per group
  survivors: 6
STZ-treated mice [2]; STZ 210 mg/kg i.p. day 0 + compound 4.5 mg/kg i.p. daily for 10 days from day −1, fasted, day −1
  Blood glucose: 2.1 ± 0.3 mM
STZ-treated mice [2]; STZ + compound 4.5 mg/kg i.p. daily for 10 days (stopped day 9), fasted, day 14
  Blood glucose: 11.8 ± 1.0 mM
STZ-treated mice [2]; STZ + compound 4.5 mg/kg i.p. daily for 10 days (stopped day 9), fasted, day 21
  Blood glucose: 12.5 ± 0.8 mM
STZ-treated mice [2]; STZ + compound 4.5 mg/kg i.p. daily for 10 days, day 0
  Body weight: 25.1 ± 0.5 g
STZ-treated mice [2]; STZ + compound 4.5 mg/kg i.p. daily for 10 days, day 3
  Body weight: 24.3 ± 1.0 g
STZ-treated mice [2]; STZ + compound 4.5 mg/kg i.p. daily for 10 days, day 5
  Body weight: 24.2 ± 0.9 g
STZ-treated mice [2]; STZ + compound 4.5 mg/kg i.p. daily for 10 days, day 7
  Body weight: 24.1 ± 0.7 g
STZ-treated mice [2]; STZ + compound 4.5 mg/kg i.p. daily for 10 days, day 9
  Body weight: 24.3 ± 0.8 g
STZ-treated mice [2]; STZ + compound 4.5 mg/kg i.p. daily for 10 days, day 11
  Body weight: 24.3 ± 0.9 g
STZ-treated mice [2]; STZ + compound 4.5 mg/kg i.p. daily for 10 days, day 13
  Body weight: 24.5 ± 1.1 g
STZ-treated mice [2]; STZ + compound 4.5 mg/kg i.p. daily for 10 days, day 15
  Body weight: 23.9 ± 0.4 g
STZ-treated mice [2]; STZ + compound 4.5 mg/kg i.p. daily for 10 days, day 17
  Body weight: 24.5 ± 1.1 g
STZ-treated mice [2]; STZ + compound 4.5 mg/kg i.p. daily for 10 days, day 21
  Body weight: 24.4 ± 1.0 g
STZ-treated mice [2]; STZ + compound 4.5 mg/kg i.p. daily for 10 days, fasted, day 0
  Blood glucose: 2.1 ± 0.2 mM
STZ-treated mice [2]; STZ + compound 4.5 mg/kg i.p. daily for 10 days, fasted, day 1
  Blood glucose: 6.7 ± 0.7 mM
STZ-treated mice [2]; STZ + compound 4.5 mg/kg i.p. daily for 10 days, fasted, day 2
  Blood glucose: 7.1 ± 0.5 mM
STZ-treated mice [2]; STZ + compound 4.5 mg/kg i.p. daily for 10 days, fasted, day 3
  Blood glucose: 7.2 ± 0.5 mM
STZ-treated mice [2]; STZ + compound 4.5 mg/kg i.p. daily for 10 days, fasted, day 4
  Blood glucose: 7.6 ± 0.4 mM
STZ-treated mice [2]; STZ + compound 4.5 mg/kg i.p. daily for 10 days, fasted, day 5
  Blood glucose: 8.2 ± 0.4 mM
STZ-treated mice [2]; STZ + compound 4.5 mg/kg i.p. daily for 10 days, fasted, day 6
  Blood glucose: 8.6 ± 0.3 mM
STZ-treated mice [2]; STZ + compound 4.5 mg/kg i.p. daily for 10 days, fasted, day 7
  Blood glucose: 9.3 ± 0.5 mM
STZ-treated mice [2]; STZ + compound 4.5 mg/kg i.p. daily for 10 days, fasted, day 8
  Blood glucose: 10.4 ± 0.7 mM
STZ-treated mice [2]; STZ + compound 4.5 mg/kg i.p. daily for 10 days, fasted, day 9
  Blood glucose: 11.0 ± 1.1 mM
STZ-treated mice [2]; [4]
  mice alive on day 53: 6
STZ-treated mice [2]; co-treated with compound and STZ, day 0 to day 21
  body weight lost: 0.7 to 1.2 g
STZ-treated mice [2]; days 3 and 4
  reduction of the effects of STZ on blood glucose level: more than 50%
[3]; 2 μM
  A540 (MTT, relative number of viable cells): 1.092 ± 0.083
[3]; 5 μM
  A540 (MTT, relative number of viable cells): 0.954 ± 0.080
[3]; 10 μM
  A540 (MTT, relative number of viable cells): 0.882 ± 0.062
[3]; 25 μM
  A540 (MTT, relative number of viable cells): 0.781 ± 0.090
